Earlier results, collected in patent publication US9585827B2, “Kits comprising a beverage composition and information for use” (The Procter & Gamble Company, priority 2000, dated 2017).

Key:
[1] = Reussner et al. 1975; phosphate added to low pH powdered beverage compositions
[2] = test system: dental caries; details: Städtler et al. 1996; toothpaste formulations of near-neutral pH

Row | SMILES | protective effect against molar erosion [1] | effect against dental caries [2]
1 | O=P1([O-])OP(=O)([O-])OP(=O)([O-])OP(=O)([O-])OP(=O)([O-])OP(=O)([O-])O1.[Na+].[Na+].[Na+].[Na+].[Na+].[Na+] [sodium hexametaphosphate] | did not produce significant protective effects | 
2 | O=P1([O-])OP(=O)([O-])OP(=O)([O-])O1.[Na+].[Na+].[Na+] [trimetaphosphate] |  | may be effective against dental caries
